Results reported in PubChem BioAssay AID2060490 (Molecular Pharmacology Branch, DTP, NCI, 2025).

Tested on: 885512-296-R-J2-PDC complex spheroid viability
Experiment: Anticancer human tumor 885512-296-R-J2-PDC patient-derived breast carcinoma cell line growth inhibition [GQUAD]
Settings: for IC50: curve of first compound; for viability, T/C: stronger effect = lower value
Excerpt: DNA G-quadruplex Stabilizer Agents in Combinations in Complex Spheroids
A high-throughput screen of multi-cell type tumor spheroids was designed to identify active combinations of DNA G-quadruplex stabilizer agents and targeted small molecules. Complex spheroids include a stromal component modeled by human endothelial cells (HUVEC) and fibroblasts modeled by human mesenchymal stem cells (MSCs). The concentration ranges selected for each drug and investigational agent were based upon clinically achievable concentrations if the clinical Cmax of the agent was known.
Compounds. The drugs and investigational agents: pidnarulex (CX-5461; NSC782164), APTO-253 (NSC789042), BRACO-19 (NSC847499), peposertib (NSC802822), ceralasertib (NSC780249), elimusertib (NSC800525), camonsertib (NSC841442), AZD-1390 (NSC803789), olaparib (NSC753686), talazoparib (NSC767125), ART-558 (NSC835418), sotorasib (NSC818433), MRTX-1133 (NSC836407), SN-38 (NSC673596), topotecan (NSC609699), etoposide (NSC141540), doxorubicin (NSC123127), gemcitabine (NSC613327), 5-fluorouracil (NSC19893), paclitaxel (NSC125973), vemurafenib (NSC761431), panobinostat (NSC761190), R-306465 (JNJ-16241199; NSC773264), adavosertib (NSC754352), TP-3654 (NSC805149), carboplatin (NSC241240), KSQ-4279 (NSC840948), and staurosporine (NSC755774) were obtained from the National Cancer Institute (NCI) Developmental Therapeutics Program Chemical Repository (34). The FDA-approved anticancer drug set is available from the NCI Developmental Therapeutics Program. […] The stock solutions were prepared in dimethyl sulfoxide (DMSO, Sigma-Aldrich, St. Louis, MO, cat. D2650) at 800-fold the tested concentration and stored at -70 degrees C prior to their use. All drugs and investigational agents were tested over a range starting from a high concentration at or near the clinical Cmax and decreasing in half-log increments. If the clinical Cmax for an agent had not been determined, the highest concentration tested was 10 microM.
2.3 Cell Culture. All cells were maintained in an incubator at 37 degrees C and 5% CO2 with 95% humidity. The PDC lines were cultured according to standard operating procedures established by the NCI PDMR. All PDCs were thawed and cultured in Matrigel-coated flasks prepared with a working solution of 1X Ham's F-12 nutrient mix, without supplementation (Invitrogen, cat. 11765054), 100 U/mL penicillin-streptomycin (Invitrogen, cat. 15140122), and 2.5% Matrigel (Corning Inc., cat. 354248) for the first three passages. The 857933-349-R-J2-PDC line was cultured in 6C/Colon 1B media, which includes advanced DMEM/F-12 (Thermo Fisher Scientific, cat. 12634028), 10 mM HEPES (Thermo Fisher Scientific, cat. 15630080), 1X GlutaMAX supplement (Thermo Fisher Scientific, cat. 35050061), 0.1 mg/mL primocin (InvivoGen, cat. ant-pm-2), 10% defined fetal bovine serum, heat inactivated (HyClone Laboratories Inc., cat. SH30070.03HI), 50% L-WRN conditioned media (ATCC, cat. CRL-3276), 1.25 mM N-Acetyl-L-cysteine (Sigma-Aldrich, cat. A9165), 10 mM nicotinamide (Sigma-Aldrich, cat. N0636), 1X B-27 supplement (Thermo Fisher Scientific, cat. 17504044), 1X N-2 supplement (Thermo Fisher Scientific, cat. 17502048), 10 microM Y-27632 dihydrochloride (Tocris Bioscience, cat. 1254), and 50 ng/mL human EGF recombinant protein (Thermo Fisher Scientific, cat. PHG0311). The 485176-168-R4-J1-PDC line was cultured in Panc media, which includes all 6C/Colon 1B media components plus 100 ng/mL human FGF-10 (Thermo Fisher Scientific, cat. 100-26), 500 nM SB-431542 (Selleckchem, cat. S1067), and gastrin (Tocris, cat. 3006).
[…]

[1] = second compound 0.0316 µM, first compound 0.0316 µM
[2] = second compound 0.0316 µM, first compound 0.1 µM
[3] = second compound 0.0316 µM, first compound 0.316 µM
[4] = second compound 0.0316 µM, first compound 1 µM
[5] = second compound 0.0316 µM, first compound 3.16 µM
[6] = second compound 0.0316 µM, first compound 10 µM
[7] = second compound 0.1 µM, first compound 0.0316 µM
[8] = second compound 0.1 µM, first compound 0.1 µM
[9] = second compound 0.1 µM, first compound 0.316 µM
[10] = second compound 0.1 µM, first compound 1 µM
[11] = second compound 0.1 µM, first compound 3.16 µM
[12] = second compound 0.1 µM, first compound 10 µM
[13] = second compound 0.316 µM, first compound 0.0316 µM
[14] = second compound 0.316 µM, first compound 0.1 µM
[15] = second compound 0.316 µM, first compound 0.316 µM
[16] = second compound 0.316 µM, first compound 1 µM
[17] = second compound 0.316 µM, first compound 3.16 µM
[18] = second compound 0.316 µM, first compound 10 µM
[19] = second compound 1 µM, first compound 0.0316 µM
[20] = second compound 1 µM, first compound 0.1 µM
[21] = second compound 1 µM, first compound 0.316 µM
[22] = second compound 1 µM, first compound 1 µM
[23] = second compound 1 µM, first compound 3.16 µM
[24] = second compound 1 µM, first compound 10 µM
[25] = second compound 3.16 µM, first compound 0.0316 µM
[26] = second compound 3.16 µM, first compound 0.1 µM
[27] = second compound 3.16 µM, first compound 0.316 µM
[28] = second compound 3.16 µM, first compound 1 µM
[29] = second compound 3.16 µM, first compound 3.16 µM
[30] = second compound 3.16 µM, first compound 10 µM
[31] = second compound 10 µM, first compound 0.0316 µM
[32] = second compound 10 µM, first compound 0.1 µM
[33] = second compound 10 µM, first compound 0.316 µM
[34] = second compound 10 µM, first compound 1 µM
[35] = second compound 10 µM, first compound 3.16 µM
[36] = second compound 10 µM, first compound 10 µM
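Also: spheroids exposed to the compounds for one week.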
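For viability, T/C in this document: percent of tumor spheroid viability relative to DMSO vehicle control wells.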

CC(C)n1c(=O)n(C)c2cnc3cc(F)c(-c4ccc(OCCCN5CCCCC5)nc4)cc3c21 + Cc1[nH]c2ccc(F)cc2c1-c1nc2c3cccnc3c3ncccc3c2[nH]1
IC50 (second compound 0.0316 µM): > 10 µM | IC50 (second compound 0.1 µM): > 10 µM | IC50 (second compound 0.316 µM): > 10 µM | IC50 (second compound 1 µM): 4.45 µM | IC50 (second compound 3.16 µM): < 0.0316 µM | IC50 (second compound 10 µM): < 0.0316 µM | viability, T/C [1]: 84.4% | viability, T/C [2]: 82.5% | viability, T/C [3]: 83.2% | viability, T/C [4]: 103% | viability, T/C [5]: 112% | viability, T/C [6]: 98.9% | viability, T/C [7]: 92.1% | viability, T/C [8]: 92.3% | viability, T/C [9]: 88% | viability, T/C [10]: 104% | viability, T/C [11]: 104% | viability, T/C [12]: 122% | viability, T/C [13]: 89.1% | viability, T/C [14]: 77.6% | viability, T/C [15]: 89.7% | viability, T/C [16]: 90% | viability, T/C [17]: 103% | viability, T/C [18]: 67.3% | viability, T/C [19]: 48.6% | viability, T/C [20]: 68.2% | viability, T/C [21]: 63.9% | viability, T/C [22]: 66% | viability, T/C [23]: 68.8% | viability, T/C [24]: 19% | viability, T/C [25]: 7.3% | viability, T/C [26]: 8.5% | viability, T/C [27]: 13.1% | viability, T/C [28]: 10% | viability, T/C [29]: 10.8% | viability, T/C [30]: 1.66% | viability, T/C [31]: 1.24% | viability, T/C [32]: 4.55% | viability, T/C [33]: 2.57% | viability, T/C [34]: 2.18% | viability, T/C [35]: 2.19% | viability, T/C [36]: 1.31%

CC1COCCN1c1cc(C2(S(C)(=N)=O)CC2)nc(-c2ccnc3[nH]ccc23)n1 (stereo unspecified) + Cc1[nH]c2ccc(F)cc2c1-c1nc2c3cccnc3c3ncccc3c2[nH]1
IC50 (second compound 0.0316 µM): 0.838 µM | IC50 (second compound 0.1 µM): 0.868 µM | IC50 (second compound 0.316 µM): 0.555 µM | IC50 (second compound 1 µM): 0.147 µM | IC50 (second compound 3.16 µM): < 0.0316 µM | IC50 (second compound 10 µM): < 0.0316 µM | viability, T/C [1]: 103% | viability, T/C [2]: 105% | viability, T/C [3]: 85.6% | viability, T/C [4]: 44.9% | viability, T/C [5]: 7.65% | viability, T/C [6]: 5.02% | viability, T/C [7]: 125% | viability, T/C [8]: 108% | viability, T/C [9]: 92.1% | viability, T/C [10]: 46.1% | viability, T/C [11]: 6.65% | viability, T/C [12]: 3.91% | viability, T/C [13]: 102% | viability, T/C [14]: 94.2% | viability, T/C [15]: 72% | viability, T/C [16]: 28% | viability, T/C [17]: 4.02% | viability, T/C [18]: 4.62% | viability, T/C [19]: 80.4% | viability, T/C [20]: 55.6% | viability, T/C [21]: 37% | viability, T/C [22]: 5.55% | viability, T/C [23]: 3.67% | viability, T/C [24]: 3.74% | viability, T/C [25]: 10.4% | viability, T/C [26]: 5.19% | viability, T/C [27]: 3.19% | viability, T/C [28]: 1.97% | viability, T/C [29]: 1.51% | viability, T/C [30]: 1.38% | viability, T/C [31]: 1.16% | viability, T/C [32]: 1.65% | viability, T/C [33]: 1.5% | viability, T/C [34]: 1.57% | viability, T/C [35]: 1.94% | viability, T/C [36]: 1.43%

Cc1cccc(N(C)C(=O)C2C(O)CCN2c2nc(C)cc(C(F)(F)F)c2C#N)c1 (stereo unspecified) + Cc1[nH]c2ccc(F)cc2c1-c1nc2c3cccnc3c3ncccc3c2[nH]1
IC50 (second compound 0.0316 µM): > 10 µM | IC50 (second compound 0.1 µM): > 10 µM | IC50 (second compound 0.316 µM): > 10 µM | IC50 (second compound 1 µM): > 10 µM | IC50 (second compound 3.16 µM): < 0.0316 µM | IC50 (second compound 10 µM): < 0.0316 µM | viability, T/C [1]: 101% | viability, T/C [2]: 92.6% | viability, T/C [3]: 108% | viability, T/C [4]: 97.3% | viability, T/C [5]: 96.7% | viability, T/C [6]: 91.5% | viability, T/C [7]: 98.5% | viability, T/C [8]: 99.8% | viability, T/C [9]: 100% | viability, T/C [10]: 94.2% | viability, T/C [11]: 105% | viability, T/C [12]: 93.2% | viability, T/C [13]: 90.2% | viability, T/C [14]: 98.9% | viability, T/C [15]: 98.8% | viability, T/C [16]: 94.2% | viability, T/C [17]: 90.7% | viability, T/C [18]: 82.4% | viability, T/C [19]: 83.5% | viability, T/C [20]: 78.2% | viability, T/C [21]: 87.4% | viability, T/C [22]: 88.8% | viability, T/C [23]: 90.5% | viability, T/C [24]: 68.6% | viability, T/C [25]: 30.2% | viability, T/C [26]: 30.1% | viability, T/C [27]: 16.5% | viability, T/C [28]: 22.4% | viability, T/C [29]: 20.8% | viability, T/C [30]: 19.9% | viability, T/C [31]: 3.35% | viability, T/C [32]: 3.56% | viability, T/C [33]: 2.69% | viability, T/C [34]: 2.33% | viability, T/C [35]: 2.29% | viability, T/C [36]: 2.63%
